# Data published in paper PMC3293837, “Biophysical Property and Broad Anti-HIV Activity of Albuvirtide, a 3-Maleimimidopropionic Acid-Modified Peptide Fusion Inhibitor” (PLoS ONE, 2012).
# Experiments:
# Format in all cases: cell-based
# [1] = test system: HIV-1 subtype B′ pseudoviruses; settings: mean over subtype B′ pseudoviruses of Table 2; TZM-bl
# Description: (§1) A panel of plasmids encoding HIV-1 Envs were obtained through the AIDS Research and Reference Reagent Program (ARRRP), Division of AIDS, NIAID, NIH, including subtype A Env clones pSVIII-92RW020.5 and 92UG037.8 from Dr. B.H. Hahn; subtype B Env clones SC422661.8, TRO.11 and AC10.0.29 from Drs. D. Montefiori, F. Gao and M. Li, pRHPA4259.7 and pREJO4541.67 from Drs. B.H. Hahn and J.F. Salazar-Gonzalez, and pCAAN5342.A2 from Drs. B.H. Hahn and D.L. Kothe; subtype C Env clones Du172.17 and Du422.1 from Drs. D. Montefiori, F. Gao, S. Abdool Karim and G. Ramjee, CAP45.2.00.G3 from Drs. L. Morris, K. Mlisana and D. Montefiori, ZM197M.PB7 from Drs. B.H. Hahn, Y. Li and J.F. Salazar-Gonzalez, ZM109F.PB4 from Drs. E. Hunter and C. Derdeyn. Six CRF07_BC Env clones (CH064.20, CH070.1, CH091.9, CH110.2, CH119.10 and CH120.6) were generous gifts by Dr. Y. Shao in the Chinese Center for Disease Control and Prevention, Beijing, China. A panel of Env clones derived from subtype B′ (B01, B02, B04, and 43-22), CRF01_AE (SHX335.24, YN192.31, AE01, AE03, GX2010.36, GX11.13, GX2010.36H, BJ5.11), and CRF07_BC (BC02, BC03, BC05, BC07, BC14, SC19-15, BJ22-5, YN148R-9, XJ50-6, HB5-3) were kindly provided by Dr. Y. Wang from the National Institute for the Control of Pharmaceutical and Biological Products, Beijing, China.
# [2] = test system: HIV-1 CRF01_AE pseudoviruses; settings: mean over CRF01_AE pseudoviruses of Table 2; TZM-bl
# Description: as §1
# [3] = test system: HIV-1 subtype C pseudoviruses; settings: mean over subtype C pseudoviruses of Table 1; TZM-bl
# Description: as §1
# [4] = test system: HIV-1 CRF07_BC pseudoviruses; settings: mean over CRF07_BC pseudoviruses of Table 2; TZM-bl
# Description: as §1
# [5] = test system: HIV-1 subtype B pseudoviruses
# Description: as §1
# [6] = test system: HIV-1 subtype A pseudoviruses; settings: mean over subtype A pseudoviruses of Table 1; TZM-bl
# Description: as §1
substance,measurement,setting,value
enfuvirtide,IC50,[1],19.5 nM
same,IC50,[2],68.1 nM
same,IC50,[3],55.2 nM
same,IC50,[4],47.2 nM
same,IC50,"[5]; mean over subtype B pseudoviruses of Table 1, TZM-bl",214 nM
same,sensitivity of some subtype B Envs (in words),"[5]; some Envs derived from subtype B, compared to other HIV-1 isolates",much less sensitive
same,IC50,[6],14.5 nM
